According to patent US20230058316A1, “PEGYLATED IGE-DEPENDENT HISTAMINE-RELEASING FACTOR (HRF)-BINDING PEPTIDE AND USE THEREOF” (EWHA UNIVERSITY - INDUSTRY COLLABORATION FOUNDATION, priority 2020, published 2023):
Where no end group is shown, it is not given here.

Columns and labels:
recombinant HRF = target: T1, recombinant HRF (Homo sapiens, UniProt P13693); test: Inhibition of IL-8 secretion by HRF in BEAS-2B cells; assay type: cell-based; conditions: FIG. 7; for inhibition of IL-8 secretion by HRF: 0.75 nM and 7.5 nM with 75 nM recombinant HRF, 24 hours
T1 sequence (P13693 1-172): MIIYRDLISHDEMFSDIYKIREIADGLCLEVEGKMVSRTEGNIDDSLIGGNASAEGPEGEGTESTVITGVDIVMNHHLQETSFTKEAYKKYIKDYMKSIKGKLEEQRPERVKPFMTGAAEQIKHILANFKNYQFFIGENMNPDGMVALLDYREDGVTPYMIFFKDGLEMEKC
Method: The PEG (5000)-dTBP2 prepared in Preparative Example 4, Example 1, and Example 2 was diluted with 1% penicillin streptomycin/DMEM for each concentration (0, 0.75 nM, 7.5 nM), incubated with 75 nM recombinant HRF at room temperature for 15 minutes, and then treated to BEAS-2B cells grown to about 70% on a 48 well plate. The cells were cultured in a 37° C., 5% CO2 incubator for 24 hours, and the supernatant was obtained. Then, the released IL-8 was quantified by enzyme immunosorbent detection (Biolegend). The IL-8 enzyme immunosorbent detection was performed according to the protocol of Biolegend Human IL-8 ELISA kit with pre coated plates (431508). 300 μl of wash buffer was added to each well of the plate pre-coated with the IL-8 antibody, and the plate was washed a total of 4 times. Then, 50 μl of the supernatant was added to each well of the plate and left at room temperature for 2 hours. After 2 hours, the supernatant in the plate was removed, and 300 μl of wash buffer was added to each well of the plate. The plate was washed a total of 4 times, and then 100 μl of a detection antibody solution was added to each well of the plate and left at room temperature for 1 hour. Thereafter, 300 μl of wash buffer was added to each well of the plate, and the plate was washed a total of 4 times. Then, 100 μl of Avidin-HRP A solution was added to each well of the plate and left at room temperature for 30 minutes. Finally, 300 μl of wash buffer was added to each well of the plate, and after washing the plate 5 times, 100 μl of substrate solution F was added to each well of the plate and left at room temperature in a dark room. 100 μl of a stop solution was additionally added to each well of the plate, and absorbance was measured at 450 nm and 570 nm. The wash buffer, detection antibody solution, avidin HRP A solution, substrate solution F, and stop solution were all used as reagents included in a kit (431508, Biolegend).

IL-4 = IL-4 secretion in bronchoalveolar lavage fluid, ovalbumin-induced bronchial asthma and rhinitis mouse model; assay type: in vivo; conditions: 1 mg/kg IP
Method: (§1) A bronchial asthma and rhinitis animal model was prepared by the following method. An ovalbumin solution was prepared by dissolving ovalbumin in an aluminum hydroxide solution (1 mg/ml) 28 and 14 days before the start of inducing bronchial asthma and rhinitis, and 200 μl of the solution was intraperitoneally injected into each mouse for sensitization. After 14 days of final sensitization, 20 μl of saline/PBS (normal control; NC) or 20 μl of 10 mg/mL ovalbumin solution (positive control; PC) was instilled into the nasal cavity of each lightly anesthetized mouse 4 times every other day for 8 days to induce bronchial asthma and rhinitis.
After the end of the experiment, the amount of IL-4 in the supernatant obtained by centrifuging bronchoalveolar lavage fluid was measured and quantified by enzyme immunosorbent detection using mouse IL-4 ELISA kit (Biolegend, USA).
Next, in order to confirm whether there is an effect of inhibiting IL-4 secretion even when administered in a small number of times, the dTBP2 of Preparative Example 4 and Example 3 was administered to the mouse model of Example 4-1 through intraperitoneal injection once in 4 days for a total of 2 times for 8 days inducing bronchial asthma and rhinitis. The amount of IL-4 was measured and quantified by the enzyme immunosorbent detection method in the same manner.
In addition, the dTBP2 of Preparative Example 4 and Example 3 was administered to the mouse model of Example 4-1 through intraperitoneal injection once on the 1st day of 8 days inducing bronchial asthma and rhinitis. The amount of IL-4 was measured and quantified by the enzyme immunosorbent detection method in the same manner.
The amount of IL-4 was measured and quantified by the enzyme immunosorbent detection method in the same manner.

IL-5 = IL-5 secretion in bronchoalveolar lavage fluid, ovalbumin-induced bronchial asthma and rhinitis mouse model; assay type: in vivo; conditions: 1 mg/kg IP
Method: as §1
After the end of the experiment, the amount of IL-5 in the supernatant obtained by centrifuging bronchoalveolar lavage fluid was measured and quantified by enzyme immunosorbent detection using mouse IL-5 ELISA kit (Biolegend, USA).
Next, in order to confirm whether there is an effect of inhibiting IL-5 secretion even when administered in a small number of times, the dTBP2 of Preparative Example 4 and Example 3 was administered to the mouse model of Example 4-1 through intraperitoneal injection once in 4 days for a total of 2 times for 8 days inducing bronchial asthma and rhinitis. The amount of IL-5 was measured and quantified by the enzyme immunosorbent detection method in the same manner.
In addition, the dTBP2 of Preparative Example 4 and Example 3 was administered to the mouse model of Example 4-1 through intraperitoneal injection once on the 1st day of 8 days inducing bronchial asthma and rhinitis. The amount of IL-5 was measured and quantified by the enzyme immunosorbent detection method in the same manner.
The amount of IL-5 was measured and quantified by the enzyme immunosorbent detection method in the same manner.

[1] = Pharmacokinetic analysis in ICR mice; assay type: in vivo; conditions: mouse, plasma, IV, 10 mg/kg
Method: The dTBP2 of Preparative Examples 4 and Example 3 was added to a solution prepared in DMSO:PEG400:DW=5:55:40, and this was administered at the concentration of 5 mL/kg. Blood samples were taken at 0.083, 0.25, 0.5, 1, 2, 4, and 8 hours post injection. The blood was centrifuged at 4° C., 3000 rpm for 10 minutes, to which cold acetonitrile containing internal standard was added in an amount 4 times the plasma component, and then deproteinization was carried out. After centrifugation again at 4° C., 13000 rpm for 10 minutes, the supernatant was collected and analyzed by Agilent 6460 LC-MS/MS. Pharmacokinetic analysis was performed with Phoenix WinNonlin (Pharsight ver 6.4, USA) using a non-compartmental analysis model.

IL-13 = IL-13 secretion in bronchoalveolar lavage fluid, ovalbumin-induced bronchial asthma and rhinitis mouse model; assay type: in vivo; conditions: 1 mg/kg IP, 8 times daily for 8 days, FIG. 18
Method: as §1
After the end of the experiment, the amount of IL-13 in the supernatant obtained by centrifuging bronchoalveolar lavage fluid was measured and quantified by enzyme immunosorbent detection using mouse IL-13 ELISA kit (R&D system, USA).
Next, in order to confirm whether there is an effect of inhibiting IL-13 secretion even when administered in a small number of times, the dTBP2 of Preparative Example 4 and Example 3 was administered to the mouse model of Example 4-1 through intraperitoneal injection once in 4 days for a total of 2 times for 8 days inducing bronchial asthma and rhinitis. The amount of IL-13 was measured and quantified by the enzyme immunosorbent detection method in the same manner.
In addition, the dTBP2 of Preparative Example 4 and Example 3 was administered to the mouse model of Example 4-1 through intraperitoneal injection once on the 1st day of 8 days inducing bronchial asthma and rhinitis. The amount of IL-13 was measured and quantified by the enzyme immunosorbent detection method in the same manner.
The amount of IL-13 was measured and quantified by the enzyme immunosorbent detection method in the same manner.

[2] = system: eosinophils in bronchoalveolar lavage fluid; test: Eosinophil increase in bronchoalveolar lavage fluid, ovalbumin-induced bronchial asthma and rhinitis mouse model; assay type: in vivo; conditions: 1 mg/kg IP, 8 times daily for 8 days, FIG. 9
Method: as §1
After anesthetizing the mouse by injecting a mixture of zoletil (250 mg/kg) and rompun (50 mg/kg) intraperitoneally, a 20-gauge catheter was inserted into the trachea by puncturing the trachea with a knife, and 0.6 mL of PBS at a time was injected-collected three times, and the collection rate was adjusted to 80%. The collected bronchoalveolar lavage fluid was centrifuged at 4° C., 3000 rpm for 10 minutes, and the cell precipitate was resuspended in 0.1 mL of PBS. 20 μL of the suspension was analyzed for the composition of blood cells using a fully automatic hematology analyzer (HEMAVET 950 FS, Drew Scientific, Inc.).

ovalbumin-specific IgE = test: Ovalbumin-specific IgE secretion in mouse plasma, ovalbumin-induced bronchial asthma and rhinitis mouse model; assay type: in vivo; conditions: plasma, 1 mg/kg IP, 8 times daily for 8 days
Method: as §1
Ovalbumin is an allergy-causing substance mainly contained in egg whites. […] After completion of the experiment, the mouse was anesthetized by injecting a mixture of zoletil (250 mg/kg) and rompun (50 mg/kg) intraperitoneally, and the chest was opened. 0.8 mL blood was collected by puncture of the heart with a 26 gauge 1 mL syringe coated with heparin. The collected blood was centrifuged at 4° C., 3000 rpm for 10 minutes to obtain plasma components. The amount of ovalbumin-specific IgE in the blood serum obtained through the above process was measured and quantified by enzyme immunosorbent detection method using mouse OVA specific IgE kit (Biolegend, USA).
Next, in order to confirm whether there is an effect of inhibiting ovalbumin-specific IgE secretion in plasma even when administered in a small number of times, the dTBP2 of Preparative Example 4 and Example 3 was administered to the mouse model of Example 4-1 through intraperitoneal injection once in 4 days for a total of 2 times for 8 days inducing bronchial asthma and rhinitis. The amount of ovalbumin-specific IgE secretion was measured and quantified by the enzyme immunosorbent detection method in the same manner.
In addition, the dTBP2 of Preparative Example 4 and Example 3 was administered to the mouse model of Example 4-1 through intraperitoneal injection once on the 1st day of 8 days inducing bronchial asthma and rhinitis. The amount of ovalbumin-specific IgE secretion was measured and quantified by the enzyme immunosorbent detection method in the same manner.
The amount of ovalbumin-specific IgE secretion was measured and quantified by the enzyme immunosorbent detection method in the same manner.

[3] = Metabolic stability in mouse liver microsomes; conditions: NADPH, 37° C., 30 minutes
Method: (§2) Upon completion of the reaction, cold acetonitrile containing internal standard was added, and then deproteinization was carried out. The reactant was centrifuged at 4° C., 4000 rpm for 15 minutes, and the supernatant was analyzed by LC-MS/MS. The system was verified with buspirone, a reference material.

[4] = Metabolic stability in human liver microsomes; conditions: pH 7.4
Method: as §2

Methoxy polyethylene glycol propionaldehyde (5000) [Preparative Example 1]
inhibition of IL-8 secretion by HRF (recombinant HRF): effective

WYVYPSM [Preparative Example 4, WYVYPSM, reference compound]
reduction of IL-4 secretion (IL-4; 8 times daily for 8 days, FIG. 14): about 50% | IL-4 secretion inhibitory effect (IL-4; once on the 5th day of 8 days, FIG. 17): weak | reduction of IL-5 secretion (IL-5; 8 times daily for 8 days, FIG. 10): about 25% | IL-5 secretion inhibitory effect (IL-5; once on the 5th day of 8 days, FIG. 13): weak | AUC(0-inf) [1]: 30 ng·h/mL | AUC(0-t) [1]: 20 ng·h/mL | half-life ([1]; read-out: T1/2 (half life) (converted)): 1.91 h | Vd ([1]; read-out: Vss (steady-state volume of distribution)): 783 L/kg | reduction of IL-13 secretion (IL-13): about 30% | reduction of increased eosinophils vs positive control [2]: about 40% | inhibiting ovalbumin-specific IgE secretion in plasma (in words) (ovalbumin-specific IgE): very effective | reduction of ovalbumin-specific IgE secretion (ovalbumin-specific IgE; FIG. 22): about 50%

O=C1CC2(CCCC2)CC(=O)N1CCCCN1CCN(c2ncccn2)CC1 [Buspirone, buspirone]
Mouse (%) remaining after reaction [3]: 0.10% | remaining at 0.5 h [4]: 6.15%

Example 1: dTBP2 (WYVYPSM) conjugated at the N-terminal with methoxy polyethylene glycol propionaldehyde (5 kDa) ({mPEG propionaldehyde 5 kDa}-WYVYPSM)
inhibition of IL-8 secretion by HRF (recombinant HRF): effective | inhibitory effect on the IL-8 secretion by HRF, comparison among the tested peptides (recombinant HRF): best

Example 2: dTBP2 (WYVYPSM) conjugated at the C-terminal with methoxy polyethylene glycol hydrazide (5 kDa) (WYVYPSM-{mPEG hydrazide 5 kDa})
inhibition of IL-8 secretion by HRF (recombinant HRF): effective
